Measured values: patent US20250228953A1, “INTRACELLULAR TARGETING OF OLIGONUCLEOTIDES” (Entrada Therapeutics, Inc., priority 2021, published 2025)

Experiments:
[1] = amino acid hydrophobicity scale; cited from earlier work
[2] = as reported by Tien, cited from earlier work; for SASA, Empirical / SASA, Theoretical: et al.
[3] = tested on: eGFP-654 transgene; assay: eGFP protein restoration in liver by ELISA; format: in vivo, mouse; conditions: 1 week
Method: Experiments were performed to determine if GalNAc conjugation to PMO or PMO-EEV could improve liver efficacy of PMO or PMO-EEV in EGFP-654 mice (Sazani et al., Nat Biotechnol. 2002 December; 20(12):1228-33. doi: 10.1038/nbt759.) in a single dosing schedule. Mice (EGFP-654, n=3/group; one female and two male) were injected intravenously (IV) with saline as control and 20 mpk of PMO1 and PMO1-EEV1; 0.2, 2, and 20 mpk (all normalized based on PMO dose) GalNAc-PMO2 and GalNAc-PMO2-EEV1 via both intravenous (TV) and subcutaneous (SC) route of administration. Both the PMO1 and the PMO2 have the same sequence and can be conjugated to EEV at the 3′ end, however, they have different functional handles at 5′ end. […] Thus, PMO1 is used as a control to when exploring the GalNAc liver targeting effects of the PMO2 GalNAc conjugates. An overview of the study design is illustrated in FIG. 16.
eGFP-654 transgenic mouse. The eGFP-654 transgenic mouse line was generated previously for evaluating splice switching oligonucleotides (Sazani et al. 2002 Nat Biotech; JAX stock #027617). The eGFP-654 transgene was cloned under a hybrid promoter with a cytomegalovirus early enhancer element, chicken beta-actin, and rabbit beta-globin, yielding widespread expression throughout the body. […]
eGFP relative protein analysis by […] (ELISA). […] Concentration was measured using a bicinchoninic acid (BCA) assay according to the manufacturer's protocol (Pierce BCA Protein Assay Kit 23227), diluting with the lysis buffer as needed. […] Sample eGFP levels were analyzed using enzyme-linked immunosorbent assay (ELISA) analysis with Abcam GFP ELISA kit (ab171581) according to the manufacturer's protocol. Sample eGFP levels were interpolated using the standard curve with the ELISA kit and reported as mass of eGFP detected (as measured by ELISA) per mass of protein content in the tissue lysate (as measured by BCA assay). the pg/mL of protein detected in each sample divided by the total protein concentration of lysates in ug/ml. […]

Molecule | Hydrophobicity, Eisenberg and Weiss [1] | Hydrophobicity, Engleman et al. [1] | Hydrophobicity, Janin [1] | Hydrophobicity, Kyrie and Doolittle [1] | SASA, Empirical [2] | SASA, Theoretical [2] | SASA, Miller et al. (1987) [2] | SASA, Rose et al. (1985) [2] | eGFP protein restoration, different EEVs / GalNAc ligands conjugated to GalNAc-PMO2 constructs ([3]; liver, 20 mpk PMO equivalent IV) | fold enhancement of efficacy compared to PMO1 ([3]; liver eGFP, 20 mpk IV) | fold enhancement of efficacy compared to PMO1-EEV1 ([3]; liver eGFP, 20 mpk IV)
C[C@H](N)C(=O)O [Ala, Alanine] | 0.25 | 1.6 | 0.3 | 1.8 | 121.0 Å^2 | 129.0 Å^2 | 113.0 Å^2 | 118.1 Å^2 |  |  | 
N=C(N)NCCC[C@H](N)C(=O)O [Arg, Arginine] | −1.80 | −12.3 | −1.4 | −4.5 |  |  |  |  |  |  | 
N=C(N)NCCC[C@H](N)C(=O)O [Arginine, arginine] |  |  |  |  | 265.0 Å^2 | 274.0 Å^2 | 241.0 Å^2 | 256.0 Å^2 |  |  | 
NC(=O)C[C@H](N)C(=O)O [Asn, Asparagine] | −0.64 | −4.8 | −0.5 | −3.5 | 187.0 Å^2 | 195.0 Å^2 | 158.0 Å^2 | 165.5 Å^2 |  |  | 
N[C@@H](CC(=O)O)C(=O)O [Asp, Aspartic acid] | −0.72 | −9.2 | −0.6 | −3.5 | 187.0 Å^2 | 193.0 Å^2 | 151.0 Å^2 | 158.7 Å^2 |  |  | 
N[C@@H](CS)C(=O)O [Cys, Cysteine] | 0.04 | 2.0 | 0.9 | 2.5 | 148.0 Å^2 | 167.0 Å^2 | 140.0 Å^2 | 146.1 Å^2 |  |  | 
N[C@@H](CCC(=O)O)C(=O)O [Glu, Glutamic acid] | −0.62 | −8.2 | −0.7 | −3.5 | 214.0 Å^2 |  | 183.0 Å^2 | 186.2 Å^2 |  |  | 
NCC(=O)O [Gly, Glycine] |  |  |  |  | 97.0 Å^2 | 104.0 Å^2 | 85.0 Å^2 | 88.1 Å^2 |  |  | 
N[C@@H](Cc1c[nH]cn1)C(=O)O [His, Histidine] | −0.40 | −3.0 | −0.1 | −3.2 | 216.0 Å^2 | 224.0 Å^2 | 194.0 Å^2 | 202.5 Å^2 |  |  | 
CC[C@H](C)[C@H](N)C(=O)O [Ile, Isoleucine] | 0.73 | 3.1 | 0.7 | 4.5 | 195.0 Å^2 | 197.0 Å^2 | 182.0 Å^2 | 181.0 Å^2 |  |  | 
NCCCC[C@H](N)C(=O)O [Lys, Lysine] | −1.10 | −8.8 | −1.8 | −3.9 | 230.0 Å^2 | 236.0 Å^2 | 211.0 Å^2 | 225.8 Å^2 |  |  | 
CSCC[C@H](N)C(=O)O [Met, Methionine] | 0.26 | 3.4 | 0.4 | 1.9 | 203.0 Å^2 | 224.0 Å^2 | 204.0 Å^2 | 203.4 Å^2 |  |  | 
N[C@@H](Cc1ccccc1)C(=O)O [Phe, Phenylalanine] | 0.61 | 3.7 | 0.5 | 2.8 | 228.0 Å^2 | 240.0 Å^2 | 218.0 Å^2 | 222.8 Å^2 |  |  | 
O=C(O)[C@@H]1CCCN1 [Pro, Proline] |  |  |  |  | 154.0 Å^2 |  | 143.0 Å^2 | 146.8 Å^2 |  |  | 
N[C@@H](CO)C(=O)O [Ser, Serine] | −0.26 | 0.6 | −0.1 | −0.8 | 143.0 Å^2 | 155.0 Å^2 | 122.0 Å^2 | 129.8 Å^2 |  |  | 
C[C@@H](O)[C@H](N)C(=O)O [Thr, Threonine] | −0.18 | 1.2 | −0.2 | −0.7 | 163.0 Å^2 | 172.0 Å^2 | 146.0 Å^2 | 152.5 Å^2 |  |  | 
N[C@@H](Cc1c[nH]c2ccccc12)C(=O)O [Trp, Tryptophan] | 0.37 | 1.9 | 0.3 | −0.9 | 264.0 Å^2 | 285.0 Å^2 | 259.0 Å^2 | 266.3 Å^2 |  |  | 
N[C@@H](Cc1ccc(O)cc1)C(=O)O [Tyr, Tyrosine] | 0.02 | −0.7 | −0.4 | −1.3 | 255.0 Å^2 | 263.0 Å^2 | 229.0 Å^2 | 236.8 Å^2 |  |  | 
CC(C)[C@H](N)C(=O)O [Val, Valine] | 0.54 | 2.6 | 0.6 | 4.2 | 165.0 Å^2 | 174.0 Å^2 | 160.0 Å^2 | 164.5 Å^2 |  |  | 
Cyclo(FGFRRRRQ)-PEG12-OH (cyclo(FGFRRRRQ); also: PEG12-OH attached, position not clear) [EEV6] |  |  |  |  |  |  |  |  | highest eGFP protein restoration |  | 
PMO3-GalNAc-EEV1: "EEV1 was reacted with compound PMO1-Lys(BCN) with the following sequence (5′-GCT ATT ACC TTA ACC CAG-3′)"; "GalNAc-N3 was then reacted with PMO1-Lys(BCN)-EEV1" (DNA GCTATTACCTTAACCCAG; all phosphorodiamidate morpholino (PMO); PMO with Lys(BCN) linker bearing GalNAc and EEV1 cell-penetrating peptide) |  |  |  |  |  |  |  |  |  | 14 fold | 8.9 fold
